Experimental data reported in patent US8415128B2, “Mitigation of photodamage in analytical reactions” (Pacific Biosciences of California, Inc., priority 2005, dated 2013).

What was measured:
Format in all cases: biochemical
DNA polymerase enzymes = experiment: Chromatide incorporation activity after photodamage step on planar glass substrates; conditions: relative to a non-illuminated control region; Laser Power 2.5 μW/μm^2; baseline 10 mM MEA-Ac, 0.1×GO-Cat, 25 mM Tris-Ascorbate; Trolox at 1 mM, PPD at 100 mM
Method: In the experiment, DNA polymerase enzymes were immobilized on planar glass substrates (fused silica microscope slides) and subjected to reaction conditions under which DNA synthesis was taking place. Each reaction mixture also included a baseline level of photodamage mitigating agents (10 mM MEA-Ac, 0.1×GO-Cat, 25 mM Tris-Ascorbate). The reactions were carried out under laser illumination of varying power.
Following the photodamage step, all the solution was washed from the chip and replaced with ordinary buffers and dNTPs. In addition, a base labeled fluorescent nucleotide (chromatide) was added to provide a fluorescent signal of incorporation activity following the photodamage step, above. […] The activity of the enzyme was measured based upon the relative fluorescence of the DNA on the slide.
Table 1, below provides the percent chromatide relative to a non-illuminated control region, for each different additive at the listed laser power.

[1] = tested on: DNA polymerase immobilized within zero mode waveguides; experiment: DNA synthesis in zero mode waveguide arrays with and without laser illumination; conditions: 160 mM DTT, without MEA; ZMW arrays
Method: A similar set of experiments to those described above were performed using DNA polymerase immobilized within zero mode waveguides in an array of waveguides. As above, the first experiment was designed to identify whether laser illumination caused damage to immobilized polymerase enzymes on nanostructured surfaces. The surfaces included ZMW arrays in which the polymerase enzyme was adsorbed to the surface. […] The illumination profile is shown in the first panel (far left), while the image of the stained DNA product in the illuminated synthesis is shown in the adjacent panel (middle left). […] The middle right and far right panels show non-illuminated waveguide arrays, and indicate substantially more DNA is present than in the illuminated sample, again showing photo-induced damage to the polymerase activity in the waveguide arrays. FIG. 4B illustrates a first set of waveguide arrays in which similar synthesis reactions were carried out in the presence of no additional mitigation agents (e.g., only 10 mM βME), or in the presence of 5 mM DTT and 100 mM MEA.

[2] = tested on: modified φ29 DNA polymerase; experiment: Bulk DNA synthesis under laser illumination, agarose gel image scanning; conditions: dye labeled tetraphosphates (reaction condition 3); 5 minute illumination; 5 mM DTT or 100 mM MEA
Method: In a first assay, synthesis reaction mixtures contained a modified φ29 DNA polymerase, 300 nM DNA template, three native nucleoside triphosphates (at 10 μM each) and a fluorescent dye labeled nucleoside polyphosphate (at 10 μM) in synthesis buffer (50 mM Tris-HCl, pH 7.5, 75 mM KCL, 20 mM (NH4)2SO4, 10 mM BME, 0.7 mM MnCl2). Each of the reactions were carried out at room temperature (22° C.) for the desired illumination period, ranging from 1 minute to one hour.
The experiment included two sets each of three different reaction mixtures: (1) a synthesis reaction using only native, e.g., unlabeled nucleoside triphosphates; (2) a synthesis reaction including two native nucleoside triphosphates, an Alexa 488 labeled dCTP analog, and an Alexa 568 labeled dTTP; and (3) a synthesis reaction including two native nucleoside triphosphates, an Alexa 488 labeled dC4P analog (tetraphosphate), and an Alexa 568 labeled dT4P. Each different synthesis reaction conditions included either no illumination or laser illumination during synthesis for five minutes with wavelengths of 488, 568 and 647 nm, followed by 60 minutes of nonilluminated synthesis. […]
The gel was subjected to image scanning (Molecular Dynamics Typhoon 9400, with Typhoon scanner Control Version 2; gel image quantified with Molecular Dynamiics ImageQuant ver. 5.2). […]

Row | SMILES | % Chromatide activity (DNA polymerase enzymes) [%] | amount of damaged polymerase activity [1] | ratio of product when exposed to laser illumination to that in the absence of such illumination [2]
1 | Cc1c(C)c2c(c(C)c1O)CCC(C)(C(=O)O)O2 (stereo not shown) [Trolox] | 41 | – | –
2 | Cc1cc(C(C)(C)C)c(O)c(C(C)(C)C)c1 [BHT, butylated hydroxytoluene] | 22 | – | –
3 | C1CN2CCN1CC2 [DABCO, diazobicyclooctane] | 20 | – | –
4 | O[C@H](CS)[C@H](O)CS (racemic) [DTT, dithiothreitol] | – | improvements | 0.59
5 | NCCS [MEA, mercaptoethylamine] | – | – | 1.04
6 | Nc1ccc(N)cc1 [PPD, p-phenylenediamene] | 58 | – | –
